System: BT-549
Assay: normalised response (% of control), CellTox Green; higher = less cell death (100 = DMSO, 0 = benzethonium chloride kill control)
Conditions: incubation time: 72 h
How it was run: (§1)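 A 20 µl suspension of breast cancer cells was seeded into each well of 384-well plates containing compound at 5 concentrations in 10-fold steps over a compound-specific 10,000-fold range. After 72 h incubation, CellTox Green fluorescence (485/520 nm) was read first, and CellTiter-Glo luminescence was read after 10 min at room temperature. Each plate was normalised against 0.1 % DMSO (100) and a positive kill control (0), and each value is the normalised signal at one concentration.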

Row | Compound | normalised response [%]
1 | CO[C@H]1/C=C\C=C(/C)C(=O)NC2=CC(=O)C(NCCN(C)C)=C(C[C@@H](C)C[C@H](OC)[C@H](O)[C@@H](C)/C=C(\C)[C@@H]1OC(N)=O)C2=O [Alvespimycin] (10 nM) | 89.8

System: MDA-MB-453
Assay: as above
Conditions: incubation time: 72 h
How it was run: as §1

Row | Compound | normalised response [%]
2 | CC(C)Cn1cnc2c(N)nc3ccccc3c21 [Imiquimod] (25 nM) | 61.1
3 | Cc1ccc(C(=O)N(CCCN)[C@@H](c2oc3cc(Cl)ccc3c(=O)c2Cc2ccccc2)C(C)C)cc1 (1 nM) | 104
4 | Clc1ccc(Nc2nnc(Cc3ccncc3)c3ccccc23)cc1 [Vatalanib] (100 nM) | 64
5 | Cc1ccc(C(=O)Nc2ccc(CN3CCN(C)CC3)c(C(F)(F)F)c2)cc1C#Cc1cnc2cccnn12 [Ponatinib] (10 nM) | 105
6 | N.N.[Cl][Pt][Cl] [Cisplatin] (10 nM) | 106
7 | COc1cc([C@@H]2c3cc4c(cc3[C@@H](O[C@@H]3O[C@@H]5CO[C@@H](C)O[C@H]5[C@H](O)[C@H]3O)[C@H]3COC(=O)[C@H]23)OCO4)cc(OC)c1O [Etoposide] (100 nM) | 102
8 | COc1cc2ncnc(Nc3ccc(F)c(Cl)c3)c2cc1NC(=O)/C=C/CN1CCCCC1 [Dacomitinib] (10 nM) | 98
9 | NC(=O)Nc1cc(-c2cccc(F)c2)sc1C(=O)N[C@H]1CCCNC1 [AZD7762] (10 nM) | 105
10 | CO[C@H]1/C=C\C=C(/C)C(=O)NC2=CC(=O)C(NCCN(C)C)=C(C[C@@H](C)C[C@H](OC)[C@H](O)[C@@H](C)/C=C(\C)[C@@H]1OC(N)=O)C2=O [Alvespimycin] (10 nM) | 96.9

System: Hs578T
Assay: as above
Conditions: incubation time: 72 h
How it was run: as §1

Row | Compound | normalised response [%]
11 | CC(C)Cn1cnc2c(N)nc3ccccc3c21 [Imiquimod] (25 nM) | 51.6
12 | Cc1ccc(C(=O)N(CCCN)[C@@H](c2oc3cc(Cl)ccc3c(=O)c2Cc2ccccc2)C(C)C)cc1 (1 nM) | 104
13 | Clc1ccc(Nc2nnc(Cc3ccncc3)c3ccccc23)cc1 [Vatalanib] (100 nM) | 111
14 | N.N.[Cl][Pt][Cl] [Cisplatin] (10 nM) | 78.4

System: MCF-10A
Assay: as above
Conditions: incubation time: 72 h
How it was run: as §1

Row | Compound | normalised response [%]
15 | CC(C)Cn1cnc2c(N)nc3ccccc3c21 [Imiquimod] (25 nM) | 91.9
16 | Cc1ccc(C(=O)N(CCCN)[C@@H](c2oc3cc(Cl)ccc3c(=O)c2Cc2ccccc2)C(C)C)cc1 (1 nM) | 107
17 | Clc1ccc(Nc2nnc(Cc3ccncc3)c3ccccc23)cc1 [Vatalanib] (100 nM) | 103
18 | Cc1ccc(C(=O)Nc2ccc(CN3CCN(C)CC3)c(C(F)(F)F)c2)cc1C#Cc1cnc2cccnn12 [Ponatinib] (10 nM) | 99.1
19 | N.N.[Cl][Pt][Cl] [Cisplatin] (10 nM) | 115
20 | COc1cc([C@@H]2c3cc4c(cc3[C@@H](O[C@@H]3O[C@@H]5CO[C@@H](C)O[C@H]5[C@H](O)[C@H]3O)[C@H]3COC(=O)[C@H]23)OCO4)cc(OC)c1O [Etoposide] (100 nM) | 75
21 | COc1cc2ncnc(Nc3ccc(F)c(Cl)c3)c2cc1NC(=O)/C=C/CN1CCCCC1 [Dacomitinib] (10 nM) | 108
22 | NC(=O)Nc1cc(-c2cccc(F)c2)sc1C(=O)N[C@H]1CCCNC1 [AZD7762] (10 nM) | 102
23 | CO[C@H]1/C=C\C=C(/C)C(=O)NC2=CC(=O)C(NCCN(C)C)=C(C[C@@H](C)C[C@H](OC)[C@H](O)[C@@H](C)/C=C(\C)[C@@H]1OC(N)=O)C2=O [Alvespimycin] (10 nM) | 94.8

System: HCC1143
Assay: as above
Conditions: incubation time: 72 h
How it was run: as §1

Row | Compound | normalised response [%]
24 | CC(C)Cn1cnc2c(N)nc3ccccc3c21 [Imiquimod] (25 nM) | 81.4
25 | Clc1ccc(Nc2nnc(Cc3ccncc3)c3ccccc23)cc1 [Vatalanib] (100 nM) | 117
26 | Cc1ccc(C(=O)Nc2ccc(CN3CCN(C)CC3)c(C(F)(F)F)c2)cc1C#Cc1cnc2cccnn12 [Ponatinib] (10 nM) | 69.8
27 | N.N.[Cl][Pt][Cl] [Cisplatin] (10 nM) | 109
28 | COc1cc([C@@H]2c3cc4c(cc3[C@@H](O[C@@H]3O[C@@H]5CO[C@@H](C)O[C@H]5[C@H](O)[C@H]3O)[C@H]3COC(=O)[C@H]23)OCO4)cc(OC)c1O [Etoposide] (100 nM) | 98.7
29 | COc1cc2ncnc(Nc3ccc(F)c(Cl)c3)c2cc1NC(=O)/C=C/CN1CCCCC1 [Dacomitinib] (10 nM) | 80
30 | NC(=O)Nc1cc(-c2cccc(F)c2)sc1C(=O)N[C@H]1CCCNC1 [AZD7762] (10 nM) | 105
31 | CO[C@H]1/C=C\C=C(/C)C(=O)NC2=CC(=O)C(NCCN(C)C)=C(C[C@@H](C)C[C@H](OC)[C@H](O)[C@@H](C)/C=C(\C)[C@@H]1OC(N)=O)C2=O [Alvespimycin] (10 nM) | 105

System: HCC1599
Assay: as above
Conditions: incubation time: 72 h
How it was run: as §1

Row | Compound | normalised response [%]
32 | CC(C)Cn1cnc2c(N)nc3ccccc3c21 [Imiquimod] (25 nM) | 103
33 | Cc1ccc(C(=O)N(CCCN)[C@@H](c2oc3cc(Cl)ccc3c(=O)c2Cc2ccccc2)C(C)C)cc1 (1 nM) | 88.1
34 | Clc1ccc(Nc2nnc(Cc3ccncc3)c3ccccc23)cc1 [Vatalanib] (100 nM) | 106
35 | Cc1ccc(C(=O)Nc2ccc(CN3CCN(C)CC3)c(C(F)(F)F)c2)cc1C#Cc1cnc2cccnn12 [Ponatinib] (10 nM) | 101
36 | N.N.[Cl][Pt][Cl] [Cisplatin] (10 nM) | 102
37 | COc1cc([C@@H]2c3cc4c(cc3[C@@H](O[C@@H]3O[C@@H]5CO[C@@H](C)O[C@H]5[C@H](O)[C@H]3O)[C@H]3COC(=O)[C@H]23)OCO4)cc(OC)c1O [Etoposide] (100 nM) | 110
38 | COc1cc2ncnc(Nc3ccc(F)c(Cl)c3)c2cc1NC(=O)/C=C/CN1CCCCC1 [Dacomitinib] (10 nM) | 88.8
39 | NC(=O)Nc1cc(-c2cccc(F)c2)sc1C(=O)N[C@H]1CCCNC1 [AZD7762] (10 nM) | 116

— the supplement of paper PMC4862054
